Results as given in patent US11965006B2, “Antimicrobial and anti-cancer therapy” (UNIVERSITY OF PITTSBURGH—OF THE COMMONWEALTH SYSTEM OF …, priority 2016, dated 2024).
“Also recorded” adds a separate entry of the source. Read-outs that look alike come from different tables or passages of the source. Ends that are not written are not given here.

Tests used:
[1] = tested on: Enterococcus faecium MDR clinical isolates; type: cell-based
Procedure: (§1) The bactericidal activities were examined using standard bacterial culture media (MHB) without the inclusion of human blood.
(§2) Tables 3 and 4 provide the MIC data for the tested AMPs against a variety of infectious species. The following strains were tested: Enterococcus faecium MDR clinical isolates Ef 25153 and Ef 26125; methicillin-resistant Staphylococcus aureus (MRSA) clinical isolates USA300 and 150-10; Klebsiella pneumonia MDR clinical isolates C3, C5, A5, D7 and E6; and Pseudomonas aeruginosa MDR clinical isolates PA 82-8 and PA 129-5. […] Table 5 provides the data for the D-amino acid substituted AMPs and their bactericidal activities against various Klebsiella pneumonia multi-drug resistant (MDR) clinical isolates. All odd number Kp bacteria (isolated prior to colistin treatment; colistin sensitive) are paired with the corresponding even number Kp bacteria (isolated after colistin treatment; colistin resistant) from the same patient. O.D. readings represent the bacterial growth with a background reading of about 0.049+/−0.003.

[2] = tested on: Klebsiella pneumonia MDR clinical isolates; type: cell-based
Procedure: as §1, §2

[3] = tested on: Pseudomonas aeruginosa MDR clinical isolates; type: cell-based
Procedure: as §1, §2

[4] = tested on: methicillin-resistant Staphylococcus aureus (MRSA) clinical isolates; type: cell-based
Procedure: as §1, §2

[5] = tested on: P. aeruginosa lipopolysaccharide (LPS)-induced secretion of tumor necrosis factor (TNF) in Raw (264.7) Cells; test: Neutralization of LPS-induced TNF secretion; type: cell-based; conditions: 1 μg/ml LPS
Procedure: Anti-inflammatory activity is based on the determination of cytokine stimulation of major inflammatory (e.g. TNF) or anti-inflammatory (e.g., IL-10) cytokines. For in vitro studies, TNF is measured using culture medium from LPS-stimulated macrophage cultures in the presence or absence of peptide treatment. For in vivo studies, cytokine levels in bronchoalveolar lavage (BAL) fluid were quantified using the mouse cytokine multiplex panel assay (Milliplex; Millipore, Billerica, Mass.). The expressions of cytokines were analyzed using the Luminex assay system, based on manufacturer's instructions and our previous publication. Standard recombinant protein solution was used to generate a standard curve for each analyzed protein. Absolute cytokine concentrations were calculated from the standard curve for each cytokine.
A high dosage (1 μg/ml) of LPS was used to stimulate the TNF secretion in raw cells.

[6] = In vivo toxicity / maximum tolerated dose; design: species or system Mice (strain: Swiss Webster); conditions: for maximum tolerated dose (MTD): i.v., Swiss Webster mice
Procedure: The modified AMPs show a lower toxicity and higher maximum tolerated dosage (MTD) than WLBU2 (SEQ ID No. 26). The MTD for WLBU2 (SEQ ID No. 26) is 15 mg/kg, for Colistin is 10 mg/kg, and SEQ ID No. 15 is 30 mg/kg (FIG. 14A).
Mice (strain: Swiss Webster) were injected with SEQ ID No. 15 peptides intravenously (i.v.) or intraperitoneally (i.p.) at the concentrations indicated. […] Thus, the estimated maximum tolerated dose (MTD) is around 40-50 mpk (i.v.). On a similar setting of testing other AMPS, the MTD for WLBU2 is 15 mpk (i.v.) and 10 mpk (i.v.) for colistin.

[7] = tested on: Pseudomonas aeruginosa; type: cell-based; conditions: for MIC: 18 h
Procedure: as §1
FIG. 5 illustrates the bactericidal activity of the 30 amino acid AMP series against Pseudomonas aeruginosa (by kinetic assay) over time (hours). […] OD reading, at 570 nm, represents bacterial growth; background reading (˜0.05) was subtracted from sample readings. Bolded concentration indicates the determined MIC. For example, MIC for SEQ ID No. 4 was 4 μM, MIC for SEQ ID No. 8 was 2 μM, MIC for SEQ ID No. 7 was 2 μM, MIC for SEQ ID No. 5 was 2 μM, MIC for SEQ ID No. 6 was 2 μM, and MIC for SEQ ID No. 9 was 2 μM.
FIG. 6 illustrates the bactericidal activity of the 24 amino acid AMPs series against Pseudomonas aeruginosa (by kinetic assay) over time (hours). […] OD reading, at 570 nm, represents bacterial growth; background reading (˜0.05) was subtracted from sample readings. Bolded concentration indicates the determined MIC.

[8] = methicillin-resistant clinical isolates, 18 h

| Substance | neutralizing LPS-induced TNF secretion [5] | MIC Ef 25153 ([1]; MDR clinical isolates, 18 h) [µM] | MIC Ef 26125 ([1]; MDR clinical isolates, 18 h) [µM] | MIC A5 ([2]; 18 h) [µM] | MIC C3 ([2]; 18 h) [µM] | MIC C5 ([2]; 18 h) [µM] | MIC PA82 82-8 ([3]; MDR clinical isolates, 18 h) [µM] | MIC PA 129-5 ([3]; MDR clinical isolates, 18 h) [µM] | MIC MRSA 150-10 [4, 8] [µM] | MIC MRSA USA300 [4, 8] [µM] | MIC D7 ([2]; 18 h) [µM] | MIC E6 ([2]; 18 h) [µM] | MIC [7] [µM] | other results |
| --- | --- | --- | --- | --- | --- | --- | --- | --- | --- | --- | --- | --- | --- | --- |
| Colistin [reference compound] | Do Not Neutralize |  |  |  |  |  |  |  |  |  |  |  |  | MIC Ef 25153 ([1]; isolate Ef 25153, Table 3): <16 µM; MIC Ef 26125 ([1]; isolate Ef 26125, Table 3): <16 µM; MIC A5 ([2]; isolate A5, Table 3): >32 µM; MIC C3 ([2]; isolate C3, Table 3): >32 µM; MIC C5 ([2]; isolate C5, Table 3): >32 µM; MIC D7 ([2]; isolate D7, Table 3): <16 µM; MIC E6 ([2]; isolate E6, Table 3): <16 µM; MIC PA 82-8 ([3]; isolate PA 82-8, Table 3): <16 µM; MIC PA 129-5 ([3]; isolate PA 129-5, Table 3): <16 µM; MIC MRSA 150-10 ([4]; isolate 150-10, Table 3): <16 µM; MIC MRSA USA300 ([4]; isolate USA300, Table 3): <16 µM; maximum tolerated dosage (MTD) ([6]; FIG. 14A): 10 mg/kg; maximum tolerated dose (MTD) [6]: 10 mpk |
| ILKKWWGTSGGLLGGLLGKVTSVIKGLNNI [SEQ ID No. 3] | good activity; also recorded: display Neutralizing Activities | 16 | 16 | 32 | >32 | >32 | >32 | >32 | <32 | <32 |  |  |  | bactericidal activity ([7]; kinetic assay, FIG. 5): did not have strong bactericidal activity |
| ILKKWWKTSGGLLGGLLGKVTSVIKGLNNI [SEQ ID No. 4] | good activity; also recorded: display Neutralizing Activities | >4 | <2 | >4 | >4 | 4 | >4 | 4 | >4 | >4 | <2 | >4 | 4 |  |
| ILKKWWKTSKGLLGGLLGGVTSVIKKLKKI [SEQ ID No. 7] |  | >4 | <2 |  | <2 | 4 | 2 | <2 | <2 | <2 | <2 | <2 | 2 |  |
| ILKKWWKTSKGLLGGLLGGVTSVIKKLKKI [SEQ ID No. 8] |  | >4 | <2 | >4 | <2 | 4 | >4 | <2 | 4 | <2 | <2 | <2 | 2 |  |
| ILKKWWKTSKGLLGGLLGKVTSVIKGLKNI [SEQ ID No. 6] | display Neutralizing Activities | >4 | <1 | >4 | 4 | 4 | >4 | >4 | <2 | >4 | 4 | 4 | 2 |  |
| ILKKWWKTSKGLLGGLLGKVTSVIKGLNNI [SEQ ID No. 5] | good activity; also recorded: display Neutralizing Activities | >4 | <2 | >4 | 4 | 2 | >4 | <1 | >4 | >4 | <1 | 4 | 2 |  |
| ILKKWWKTVKGLLGGLLGGVTSVIKKLKKI [SEQ ID No. 9] |  | <2 | <2 | >4 | <2 | 4 | >4 | >4 | <2 | <2 | <2 | <2 | 2 |  |
| LKKWWKKVKGLLGGLLGKVTSVIK [SEQ ID No. 15] |  | 2 | <1 | >4 | <2 | 4 | 2 | 1 | 2 | 4 | 2 | 2 |  | tolerability ([6]; 60 mg/kg i.v.): One mouse injected with 60 mg/kg (mpk, i.v.) died; tolerability ([6]; 30 mpk i.p.): all mice were active and tolerated the dosage; tolerability ([6]; 40 mpk i.v.): all mice were active and tolerated the dosage; MTD ([6]; Swiss Webster, mouse, in vivo, FIG. 14A, read-out: maximum tolerated dosage (MTD)): 30 mg/kg; in vivo toxicity ([6]; figure legends FIG. 14A, FIG. 30): lower toxicity (higher MTD) than WLBU2; also recorded: very low in vivo toxicity; maximum tolerated dose (MTD) [6]: 40-50 mpk |
| LLGDFFRKSKEKIGKEFKRIVQRIKDFLRNLLPRTES [SEQ ID No. 25, reference compound] | Do Not Neutralize | <16 | <16 | >32 | 32 | >32 |  | 16 | 32 | >32 | <16 | <16 |  | MIC PA 82-8 ([3]; MDR clinical isolates, 18 h): 32 µM |
